Patent publication US20020058020A1, “Isolated amphiphilic peptides derived from the cytoplasmic tail of viral envelope proteins” (priority 1999, published 2002)
Ends that are not written are not given here. R1 = not defined here

How the values were obtained:
[1] = Peptide-induced K+ release from unilamellar liposomes (Example 2); conditions: 22° C.; for % K+ - Release POPC:POPG1:1: POPC:POPG 1:1 liposomes; for % K+ - Release POPC:POPG,3:1: POPC:POPG 3:1 liposomes; for % K+ - Release POPC: POPC liposomes
Procedure: Peptide-induced K′ release from liposomes. Liposomes (see above) were made in 100 nM KCl, 10 mM Tris-HCl, pH 7.5. The external KCl was reduced to less than 0.1 mM by two passages through a PD10 column (Pharmacia Biotech AB, Uppsala, Sweden) equilibrated in NaCl buffer (100 mM NaCl, 10 mM Tris-HCl, pH 7.5). Potassium release from liposomes was detected by a K′-selective microelectrode (Micro-electrode Inc.) and recorded on VHS tape using a pulse-code modulator. Peptides were assayed at 10 μM and 30 μM.
Unilamellar liposomes formed from (i) POPC; (ii) POPC and POPG at a molar ratio of POPC: POPG of 3:1, or (iii) POPC and POPG at a molar ratio of POPC: POPG of 1:1 were prepared in 100 mM KC1 according to the procedure described in Example 1. Peptide-induced K+ release from the liposomes also was detected according to the procedure described in Example 1. All measurements were carried out at 22° C.

[2] = Peptide-induced K+ release from liposomes (Example 1); type: biochemical; conditions: for % K+-release: liposomes POPG/POPC 1:3, 10 mg/ml, loaded with 100 mM KCl, total release with 0.1 M Triton X-100, <2% not detectable
Procedure: Liposomes were prepared from 1-Palmitoyl-2-Oleoyl-sn-Glycero-3-(Phospho-rac-(1-glycerol)) (POPG) and 1-Palmitoyl-2-Oleoyl-sn-Glycero-3-Phosphocholine (POPC) (Avanti Polar Lipids Inc., Birmingham, Ala.). The lipid-chloroform solutions were mixed at a molar ratio of 1:3 (POPG:POPC), dried under N2 and vacuum, sonicated, and taken through freeze-thaw cycles repeated a minimum of 5 times.
Peptide-induced K′ release from liposomes. […] Enzymol., Vol. 235, pgs. 699-713 (1994).
^b Percentage of the intraliposomal K^+ release induced by […] peptides from liposomes (POPG/POPC 1:3, 10 mg/ml) loaded with 100 mM KC1 and dialyzed against 100 mM NaCl buffer. […] . Total K^+ release was obtained with 0.1 M Triton X-100.
A novel approach was developed to measure the membrane activity of peptide 598-616. Peptide-induced release of K^+ from KCl-loaded lipid vesicles was detected using a K^+-selective electrode. The addition of 10 μM wild type peptide 598-616 causes 29% K^+ content release. At a concentration of 30 μM, about 70% K^+ content is released from liposomes (data not shown). For comparison, 10 μM melittin, a lytic component of bee venom, causes 31% K^+ content release.

[3] = Circular dichroism analysis of α-helical content; type: physicochemical; conditions: for secondary structure by CD (in words): aqueous vs liposome environment
Procedure: A. Membrane-Dependent Formation Of An α-Helical Structure By Peptide 598-616 As measured By Circular Dichroism (CD). The plot represents an average of 9 CD spectra for 50 μM peptide 598-616 in an aqueous solution (20 mM NaPO4,pH 7, dashed line), and in presence of liposomal membrane vesicles (POPG/POPC [1:3] liposomes in 20 mM Na2 PO4, pH 7.4; lipid to peptide molar ratio 100:1; solid line). The measurements were obtained for wavelength 195-250 nm at 20 mdeg sensitivity.
The peptides for circular dichroism (CD) analysis were used at a final concentration of 50 μM. The stock solution of extruded liposomes at 50 mg/ml was used. The final peptide-to-lipid molar ratio was 1/100 in 20 mM Na2PO4 buffer. CD spectra were obtained using a Jasco J-600 CD spectrometer. Samples were scanned from 250 nm to 195 nm using cuvettes with a path length of 1 mm. Each result represents an average of 9 scans.
To analyze the secondary structure of the peptides corresponding to MoMuLV cytoplasmic tail segments, the peptides 598-616 and 617-632 were evaluated by CD spectroscopy. The CD spectrum produced by the peptide 598-616 absorption of polarized light in an aqueous environment is characteristic of a random coil conformation (FIG. 2A, dotted line). […] The estimated percent α-helicity for peptide 598-616 is nearly 60%. Similar α-helical properties have been observed for the lytic amphiphilic segments from HIV-1 env cytoplasmic tail and the active component of bee venom, melittin (Eisenberg, et al., Biopolymers, Vol. 29, pgs. 171-177 (1992)). Thus, the computer-predicted α-helical structure for the region 598-616 is confirmed for peptide 598-616 by CD analysis in the presence of membranes.

[4] = Electron paramagnetic resonance analysis of spin labeled peptides with liposomes; type: physicochemical; conditions: for aggregation state by EPR (in words): membrane-bound state or solution
Procedure: B. Spin-Labeled Peptide 598-616 Associates With Membranes As Determined By Electron Paramagnetic Resonance (EPR) Analysis. […]; lipid to peptide molar ratio 100:1; solid line). The arrow marks the position of a small component of free spin.
Spin labeled peptides (50 μM) diluted in buffer (50mM NaPO4, 100 mM NaCl, pH 7.4) were added to the extruded liposomes at a peptide-to-lipid molar ratio of greater than 1/100. X-band electron paramagnetic resonance (EPR) spectra were recorded at room temperature. The spin accessibility parameter (II) was determined for 20 mM nickel ethylenediaminediacetic acid, or NiEDDA, and O2 in equilibrium with air as previously described (Farahbakhsh, et al., Photochemistry and Photobiolocy, Vol. 56, pgs. 1019-1033 (1992)). The topology or context parameter φ was calculated as φ=ln [II(O2)/II(NiEDDA)] (Altenbach, et al., Proc. Nat. Acad. Sci., Vol. 91, pgs. 1667-1671 (1994)).
The structural features of the peptide 598-616 bound to membranes were investigated further by EPR analysis of corresponding peptides modified to contain single R1 nitroxide side chains at the positions indicated in FIG. 2C. For each labeled peptide in solution, the EPR spectrum consisted of three sharp resonance lines characteristic of a random coil for peptides containing R1 (Farahbakhsh, et al., Biochemistry, Vol. 34, pgs. 509-516 (1995)). A representative example is shown by the dotted line in FIG. 2B for the V606-R1 peptide. […] Judging from the line shapes, the contribution from the unbound peptide is very small, less than 1% (arrow FIG. 2B). All peptides 598-616 gave similar effects, although the individual line shapes varied (data not shown).
Spin-spin interactions between nitroxides result in spectral broadening over and above that due to motional effects (Mchaourab, et al., Biochemistry, Vol. 36, pgs. 307-316 (1997)).

NIH3T3 cells [5] = experiment: Syncytia formation in env-transfected NIH3T3 cells; type: cell-based; conditions: relative fusion efficiency, normalized to 616* = 100
[6] = system: XC6 cell co-cultured with env-transfected 293T cells; experiment: End point cell-to-cell fusion assay, 293T/XC6 co-culture; conditions: relative fusion efficiency, WT = 100
Procedure: Viral particles were obtained from 293T cells transfected transiently (n=3−5) with the expression plasmids for env, gag-pol, and β-gal, with wild type or mutant (616*, 601*, 598*, 595SR*, 578*, GLA ecto) env. Transduction efficiency of these virions (white bars=titers) was tested on NIH3T3 cells. The Env fusogenicity (filled bars =% fusion) was measured by expressing Env only in 293T cells. The indicator XC6 cells were added 24 hours post-transfection, were fixed 12 hours later and scored microscopically on ten 2 mm^2 grids for syncytia (cells with four or more nuclei).
Cell-To-Cell Fusion Assays For the end point fusion assay, 5×10^5 XC6 cells were added to the env transfected 293 T cells 20 hrs. post-transfection, and stained with methylene blue (0.01% in methanol) at about 36 hours post-transfection for syncytia (cells with 4 or more nuclei) scoring.
The end point fusion assay measures env-induced cell-to-cell fusion between env-transfected 293T cells and the ecotropic receptor expressing XC cells at 36 hrs post-transfection.

[7] = system: env-transfected 293T cells; experiment: Cell surface envelope protein expression by indirect immunofluorescence; conditions: relative, WT = 100
Procedure: NIH3T3 cells (1H10^5) , 293T or 293/12 (1H10^6) per 60 mm2 plates were transfected according to the Ca(PO4)2 transfection protocol of 5′-3′ Inc. (Boulder, Colo.) (day 1). For cell surface expression and co-culture experiments, 15 μg env expression plasmid was used.
Cell Surface Expression And The Analysis Of Viral Envelope Particle Incorporation Assays were done as described in Januszeski, et al., J. Virol., Vol. 71, pgs.

NIH3T3 cells [8] = experiment: Transduction assay, β-gal titer on NIH3T3 cells; type: cell-based; conditions: WT = 100

Molecule	% K+ - Release POPC:POPG1:1 [1] [%]	% K+ - Release POPC:POPG,3:1 [1] [%]	% K+ - Release POPC [1] [%]	also measured
598-611: peptide of MoMuLV env residues 598-611 (ILNRLVQFVKDRIS; UniProt P03385 631-644, looked up, fragment) [Peptide 598-611]	22	13		
598-616 D608C: peptide 598-616 with D608C substitution (ILNRLVQFVKCRISVVQAL; UniProt P03385 631-649, looked up, variant D608C)	11	7	5	
598-616 F605C: peptide 598-616 with F605C substitution (ILNRLVQCVKDRISVVQAL; UniProt P03385 631-649, looked up, variant F605C)	7	4	8	
598-616 Q604C: peptide 598-616 with Q604C substitution (ILNRLVCFVKDRISVVQAL; UniProt P03385 631-649, looked up, variant Q604C)	28	20	29	
598-616 R601C: peptide 598-616 with R601C substitution (ILNCLVQFVKDRISVVQAL; UniProt P03385 631-649, looked up, variant R601C)	13	10	32	
598-616 R609A: peptide 598-616 with Arg 609 Ala mutation (ILNRLVQFVKDAISVVQAL; UniProt P03385 631-649, looked up, variant R609A)	0	0	11	loss of K+ release relative to wild type peptide 598-616 [2]: 75%; % K+-release [2]: 9.9 ± 1.8%
598-632 Q604C: peptide 598-632 with Q604C substitution	31	30	6	
598-632: peptide representing the whole cytoplasmic tail region (598-632) [Peptide 598-632]				secondary structure by CD (in words) [3]: higher helical content in the presence of membrane vesicles than the peptide 598-616 alone; aggregation state by EPR (in words) [4]: monomeric association with the membrane
602-616: peptide of MoMuLV env residues 602-616 (LVQFVKDRISVVQAL; UniProt P03385 635-649, looked up, fragment) [Peptide 602-616]	5	4	2	
CC[C@H](C)[C@H](NC(=O)CN)C(=O)NCC(=O)N[C@@H](C)C(=O)N[C@H](C(=O)N[C@@H](CC(C)C)C(=O)N[C@@H](CCCCN)C(=O)N[C@H](C(=O)N[C@@H](CC(C)C)C(=O)N[C@H](C(=O)N[C@H](C(=O)NCC(=O)N[C@@H](CC(C)C)C(=O)N1CCC[C@H]1C(=O)N[C@@H](C)C(=O)N[C@@H](CC(C)C)C(=O)N[C@H](C(=O)N[C@@H](CO)C(=O)N[C@@H](Cc1c[nH]c2ccccc12)C(=O)N[C@H](C(=O)N[C@@H](CCCCN)C(=O)N[C@@H](CCCNC(=N)N)C(=O)N[C@@H](CCCCN)C(=O)N[C@@H](CCCNC(=N)N)C(=O)N[C@@H](CCC(N)=O)C(=O)N[C@@H](CCC(N)=O)C(N)=O)[C@@H](C)CC)[C@@H](C)CC)[C@@H](C)O)[C@@H](C)O)C(C)C)C(C)C [melittin, reference compound]	27	31	31	K+ content release ([2]; 10 μM peptide): 31%; % K+-release [2]: 30.9 ± 2.1%
ILNRLVQFVKDRISVVQAL (Moloney murine sarcoma virus) [Peptide 598-616, amino acid residues 598-616 of the wild type envelope protein of Moloney Murine Leukemia Virus]	24	13	9	estimated percent α-helicity ([3]; 50 μM peptide in presence of liposomes, lipid to peptide 100:1): ~60%; secondary structure by CD (in words) [3]: becomes α-helical; K+ content release ([2]; 10 μM peptide): 29%; K+ content release ([2]; 30 μM peptide, data not shown): about 70%; % K+-release [2]: 29.3 ± 3.6%; aggregation state by EPR (in words) [4]: monomeric association with the membrane
Magainin [reference compound]	51	43	8	
Triton X-100 [reference compound]	100	100	100	% K+-release [2]: 100%
V606-R1 peptide: nitroxide-labeled peptide 598-616 V606C(R1) (ILNRLVQFC(R1)KDRISVVQAL; reading uncertain; UniProt P03385 631-649, looked up, variant V606C)				contribution from the unbound peptide ([4]; upon addition to liposomes, judged from EPR line shapes): less than 1%
WT: wild type MoMuLV ecotropic envelope protein				Fusion NIH3T (NIH3T3 cells [5]): 0; Fusion 293T/XC6 [6]: 100; Cell Surface Expression [7]: 100; Titer (relative β-gal titer) (NIH3T3 cells [8]): 100
